From patent publication US8147817B2, “IL-33 in the treatment and diagnosis of diseases and disorders” (The Brigham and Women's Hospital, Inc., priority 2006, dated 2012)
Entries after “also recorded” stand apart in the source; their conditions may differ.

Tests used:
[1] = test system: rat neonatal cardiac fibroblasts; experiment: sST2 and IL-33 secretion and free IL-33 in cardiac fibroblast conditioned media (Western, immunoprecipitation); type: cell-based
Method: Immunoprecipitation was performed as described previously (45) with some modifications. Briefly, after wash with PBS, protein G-agarose beads were presaturated with far excessive amount of sST2-Fc protein (R&D) at 4° C. overnight, washed 3 times with PBS. 1 ml of conditioned media in the presence and absence of separated preincubation with 20 μg of the sST2-Fc protein was then incubated with presaturated beads for 2 hours at room temperature.
(§1) Western analyses were performed as described previously (45). Membranes were incubated with primary antibodies overnight (anti-p44/42MAPK diluted 1:500; phospho-p44/42MAPK (Thr202/Tyr204) 1:1000; phospho-JNK (Thr183/Tyr185) 1:500; p38MAPK 1:500; phospho-p38MAPK (Thr180/Tyr182) 1:500; phospho-Akt (Ser473) 1:1000 and phospho-IκBα 1:1000, all from Cell Signaling, anti-mouse ST2L, from R&D 1:1000 and anti-IL-33 as described above, 1:500) at 4° C., detected with horseradish peroxidase-conjugated antibodies and enhanced chemiluminescence.

[2] = test system: IL-33; experiment: IL-33 gene expression by quantitative PCR in cardiomyocytes and cardiac fibroblasts; type: cell-based, rat; settings: PMA 0.2 μM, angiotensin-II 0.1 μM, TNF-α 10 ng/ml, IL-1β 10 ng/ml
Method: mRNA expression was analyzed by quantitative PCR using the QuantiTect SYBR Green reverse transcription-PCR kit (QIAGEN, Valencia, Calif.) and the Light Cycler System (Roche Applied Science, Indianapolis, Ind.) as previously described (5). Total RNA was extracted from cells with TRI reagent, and 0.2 μg of RNA was analyzed. Sequences of PCR primers were as follows (5′ to 3′): […] (SEQ ID NO: 1) and […] (SEQ ID NO: 2) (IL-33); […] (SEQ ID NO: 3) and […] (SEQ ID NO: 4) (ANP); […] (SEQ ID NO: 5) and […] (SEQ ID NO: 6) (BNP); […] (SEQ ID NO: 7) and […] (SEQ ID NO: 8) (procollagen I); […] (SEQ ID NO: 9) and […] (SEQ ID NO: 10) (collagen III).
mRNA expression was analyzed by quantitative PCR using the QuantiTect SYBR Green reverse transcription-PCR kit (QIAGEN) and the Light Cycler System (Roche Applied Science) as previously described (45). Total RNA was extracted from cells with TRI reagent, and 0.2 μg of RNA was analyzed. Sequences of PCR primers were as follows (5′ to 3′): […] (SEQ ID NO: 1) and […] (SEQ ID NO: 2) (rat IL-33); […] (SEQ ID NO: 3) and […] (SEQ ID NO: 4) (rat ANP); […] (SEQ ID NO: 5) and […] (SEQ ID NO: 6) (rat BNP).

[3] = test system: NF-κB; experiment: NF-κB nuclear binding activity by EMSA in cardiomyocytes; type: cell-based, rat; settings: cardiomyocytes; angiotensin-II 1 μM, phenylephrine 50 μM, IL-33 10 ng/ml
Method: (§2) Electromobility shift assays were performed as described previously (8). Cells were lysed for 10 minutes on ice in a solution containing 10 mM HEPES (pH 7.6), 15 mM KCl, 2 mM MgCl2, 0.1 mM ethylenediamine tetraacetic acid (EDTA), 1 mM dithiothreitol (DTT), 0.5 mM phenylmethylsulphonylfluoride (PMSF), 10 μg/mL leupeptin and 0.2% Nonident P-40. Dishes were gently scraped, and nuclei were collected by centrifugation at 800 g for 30 seconds and then suspended in a solution of 50 mM HEPES, 400 mM KCl, 0.1 mM EDTA, 10% glycerol, 1 mM DTT, 0.5 mM PMSF and 10 μg/mL leupeptin. The mixture was incubated on ice for 30 minutes, and the supernatant was collected after centrifugation for 15 minutes at 400 g. Binding reactions were performed with 5 or 10 μg of nuclear protein in 10 mM Tris, 1 mM DTT, 1 mM EDTA, 5% glycerol, 0.1% Triton X-100, 1 mg poly(dIdC), 5 μg bovine serum albumin (BSA) and approximately 10,000 cpm of −32P-labeled oligonucleotide. The binding reactions for AP-1 activity also contained 5 mM MgCl2. Control reaction mixtures contained a 100-fold excess of unlabeled oligonucleotide and were incubated with nuclear extracts of IL-1β-treated cells. DNA complexes were separated on a 4% nondenaturing polyacrylamide gel in Tris-HCl (6.7 mM), EDTA (1 mM) and ammonium acetate (3.3 mM). The oligonucleotides contained the NF-B binding site (sequence: 5′-AGTTGAGGGGACTTTCCCAGGC-3′ (SEQ ID NO: 15)) and were labeled by standard procedures.
EMSAs were performed as described previously (47). Cells were lysed for 10 minutes on ice in 10 mM HEPES (pH 7.6), 15 mM KCl, 2 mM MgCl2, 0.1 mM EDTA, 1 mM DTT, 0.5 mM PMSF, 10 μg/mL leupeptin, and 0.2% Nonident P-40. Dishes were gently scraped, and nuclei were collected by centrifugation at 800 g for 30 seconds and then suspended in a solution of 50 mM HEPES, 400 mM KCl, 0.1 mM EDTA, 10% glycerol, 1 mM DTT, 0.5 mM PMSF, and 10 μg/mL leupeptin. The mixture was incubated on ice for 30 minutes, and the supernatant was collected after centrifugation for 15 minutes at 400 g. Binding reactions were performed with 5 or 10 μg of nuclear protein in 10 mM Tris, 1 mM DTT, 1 mM EDTA, 5% glycerol, 0.1% Triton X-100, 1 mg poly(dIdC), […] BSA, and 10,000 cpm of [^32P]-labeled oligonucleotide. The specific NF-κB consensus oligonucleotides were 5′-[…]-3′ (SEQ ID NO: 15) and 5′-[…]-3′ (SEQ ID NO: 18) (Promega). Positive and negative control mixtures as well as specific competition mixtures were made as recommended by the manufacturer's instructions, using binding buffer with positive samples, labeled NF-κB oligonucleotides and 10-fold excess of cold NF-κB consensus oligonucleotides for specific competition. DNA complexes were separated on a 6% nondenaturing polyacrylamide gel in Tris-HCl (6.7 mM), EDTA (1 mM), and ammonium acetate (3.3 mM).

[4] = test system: NF-κB; experiment: NF-κB nuclear binding activity by EMSA in cardiac fibroblasts; type: cell-based, rat; settings: angiotensin-II 1 μM, phenylephrine 50 μM, IL-33 10 ng/ml
Method: as §2
EMSAs were performed as described previously (47). Cells were lysed for 10 minutes on ice in 10 mM HEPES (pH 7.6), 15 mM KCl, 2 mM MgCl2, 0.1 mM EDTA, 1 mM DTT, 0.5 mM PMSF, 10 μg/mL leupeptin, and 0.2% Nonident P-40. Dishes were gently scraped, and nuclei were collected by centrifugation at 800 g for 30 seconds and then suspended in a solution of 50 mM HEPES, 400 mM KCl, 0.1 mM EDTA, 10% glycerol, 1 mM DTT, 0.5 mM PMSF, and 10 μg/mL leupeptin. The mixture was incubated on ice for 30 minutes, and the supernatant was collected after centrifugation for 15 minutes at 400 g. […]

[5] = test system: cardiomyocytes; experiment: Oxidative stress assay (DCFDA, ROS generation); type: cell-based, rat; settings: DCFDA
Method: An assay to detect oxidative stress was performed as reported previously (48). Cardiomyocytes were incubated with 2,7-dichlorodihydrofluorecein diacetate (DCFDA) for 45 min, washed in phosphate-buffered saline, and fluorescence intensity was measured using a fluorometer (PerkinElmer Life Science) at 595 nm.

[6] = test system: NF-κB; experiment: NF-κB luciferase reporter assay in neonatal rat cardiomyocytes; type: cell-based; settings: n=3
Method: Neonatal rat cardiomyocytes were transfected using Lipofectamine Plus (Invitrogen) with a luciferase reporter plasmid for NF-κB and with β-galactosidase, as described previously (47). After 48 hours of transfection, cells were then stimulated for an additional 24 hours, lysed and treated with Dual-Light assay system (Applied Biosystems, Foster City, Calif.), and analyzed using a luminometer (PerkinElmer Waltham, Calif.).

[7] = test system: IκBα; experiment: IκBα phosphorylation by Western analysis in cardiomyocytes; type: cell-based, rat; settings: cardiomyocytes
Method: as §1

[8] = test system: IκBα; experiment: IκBα phosphorylation by Western analysis in cardiac fibroblasts; type: cell-based, rat
Method: as §1

[9] = test system: rat neonatal cardiomyocytes; experiment: [3H]-leucine incorporation assay (hypertrophy); type: cell-based; settings: for hypertrophic response under angiotensin-II or phenylephrine: agent added without IL-33; for antihypertrophic effect of IL-33: under angiotensin-II or phenylephrine plus IL-33, agent added
Method: Leucine incorporation in rat neonatal cardiomyocytes was detected as previously described (7). Cells were pre-incubated with 1.0 μCi/mL [^3H]leucine for 24 hours. The medium was aspirated, and the cells were washed twice with ice-cold PBS and once with 10% trichloroacetic acid (TCA; Sigma) and fixed for 45 minutes at 4° C. with 10% TCA. After washing twice with cold 95% ethanol, radioactivity incorporated into the TCA-precipitable material was determined by liquid scintillation counting after solubilization in 0.15N NaOH.
Leucine incorporation in rat neonatal cardiomyocytes was detected as previously described (46). Cells were treated with 1.0 μCi/ml [^3H]-leucine for 24 hours, washed, fixed with 10% trichloroacetate (Sigma) for 45 minutes at 4° C., and then radioactivity was determined by liquid scintillation counting. An anti-mouse ST2 antibody (R&D) was used as a functional neutralizing antibody (12). A normal rat IgG2a (Sigma) and mouse IL-1Rrp2 (R&D) were used as controls for anti-mouse ST2 antibody (R&D) and mouse soluble ST2 (R&D), respectively.

[10] = increasing doses of PMA, 24 hrs

CCCCCCCCCCCCCC(=O)O[C@@H]1[C@@H](C)[C@@]2(O)[C@@H](C=C(CO)C[C@]3(O)C(=O)C(C)=C[C@@H]23)[C@@H]2C(C)(C)[C@]12OC(C)=O [PMA, phorbol 12-myristate 13-acetate]
free (unbound) IL-33 [1, 10]: unbound IL-33 diminished; also recorded: dose-dependent decrease in free IL-33 level; also recorded: dose-dependently decreased free IL-33
secretion of sST2 and total IL-33 [1, 10]: both sST2 and total IL-33 were induced; also recorded: dose-dependent robust induction in both sST2 and IL-33 protein expression; also recorded: dose-dependently increased secretion of both IL-33 (top) and sST2
induction of IL-33 gene expression [2]: induced the expression of IL-33 in both cell types; also recorded: powerful inducer

CNC[C@H](O)c1cccc(O)c1 [phenylephrine, reference compound]
NF-κB activation by agent alone [3]: independently activated NF-κB in both cell types
NF-κB activation by agent alone [4]: independently activated NF-κB in both cell types
ROS generation by agonist alone [5]: significantly induced ROS generation

IL-1β: cytokine stimulus, 10 ng/ml
induction of IL-33 gene expression [2]: neither TNF-α (10 ng/ml) nor IL-1β (10 ng/ml) induced IL-33 gene expression

TNF-α
induction of IL-33 gene expression [2]: neither TNF-α (10 ng/ml) nor IL-1β (10 ng/ml) induced IL-33 gene expression

angiotensin-II (DRVYIHPF; Angiotensin-2; UniProt P01019 25-32, looked up) [hypertrophic stimulus, angiotensin receptor agonist, reference compound]
increase of NF-κB promoter activity ([6]; angiotensin-II alone): 66+/−26%
NF-κB activation by agent alone [3]: independently activated NF-κB in both cell types
induction of IL-33 gene expression [2]: induced the expression of IL-33 in both cell types
NF-κB activation by agent alone [4]: independently activated NF-κB in both cell types
ROS generation by agonist alone [5]: significantly induced ROS generation
IκBα phosphorylation by agent alone [7]: induced IκBα phosphorylation in both cell types
IκBα phosphorylation by agent alone [8]: induced IκBα phosphorylation in both cell types

sST2-Fc: sST2-Fc protein (R&D), recombinant ST2-Fc chimera protein
free IL-33 in conditioned media after preincubation ([1]; 20 μg of sST2-Fc protein): removed free IL-33

sST2: soluble form of ST2; mouse soluble ST2 (R&D); acts as decoy receptor for IL-33
increase of NF-κB promoter activity ([6]; angiotensin-II with IL-33 and sST2 co-treatment): 42+/−5%
hypertrophic response under angiotensin-II or phenylephrine [9]: further augment the hypertrophic response; also recorded: trend toward increased amino acid uptake
hypertrophic response under angiotensin-II or phenylephrine ([9]; listed as soluble ST2): further enhanced hypertrophy
leucine uptake at baseline ([9]; agent alone, vs baseline or control protein): not affected
antihypertrophic effect of IL-33 [9]: reversed the antihypertrophic effect of IL-33 in a dose-dependent manner
antihypertrophic effect of IL-33 ([9]; listed as Soluble ST2): dose-dependently reversed the antihypertrophic effect of IL-33
antihypertrophic effect of IL-33 ([9]; listed as soluble ST2): abolishes it; also recorded: the effects of IL-33 are abolished
